Results: patent publication US20120252796A1, “COMPOUNDS FOR THE TREATMENT OF DYSLIPIDEMIA AND RELATED DISEASES” (priority 2009, published 2012)

What was measured:
PCSK9 [1] = target: T1, PCSK9 (Homo sapiens, UniProt Q8NBP7); assay: PCSK9-LDLR in vitro Binding Assay (ELISA)
In short: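 Solid-phase ELISA: PCSK9 premixed with compound at varying concentrations added to immobilized recombinant LDLR-AB domain. Bound PCSK9 detected via biotinylated anti-His mAb and HRP-streptavidin, absorbance at 450 nm; EC50 by nonlinear regression from duplicate points.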
Target sequence in this assay (Q8NBP7 153-692): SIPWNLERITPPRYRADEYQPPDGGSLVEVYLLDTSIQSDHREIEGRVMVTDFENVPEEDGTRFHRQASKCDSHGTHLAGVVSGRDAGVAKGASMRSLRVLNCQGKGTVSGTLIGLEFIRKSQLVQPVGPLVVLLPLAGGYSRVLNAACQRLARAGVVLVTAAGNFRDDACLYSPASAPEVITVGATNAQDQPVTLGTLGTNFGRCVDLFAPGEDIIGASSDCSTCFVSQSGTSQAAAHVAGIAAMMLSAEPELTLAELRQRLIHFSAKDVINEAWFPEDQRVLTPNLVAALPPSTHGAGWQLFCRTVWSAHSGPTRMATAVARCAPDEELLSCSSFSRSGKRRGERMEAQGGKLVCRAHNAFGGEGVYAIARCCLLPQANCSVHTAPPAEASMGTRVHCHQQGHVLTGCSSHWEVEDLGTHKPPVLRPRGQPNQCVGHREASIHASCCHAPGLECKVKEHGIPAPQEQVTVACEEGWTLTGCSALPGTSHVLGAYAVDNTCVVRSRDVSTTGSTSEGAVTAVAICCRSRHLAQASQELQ
Target sequence in this assay (Q8NBP7 31-152 partner limits assumed): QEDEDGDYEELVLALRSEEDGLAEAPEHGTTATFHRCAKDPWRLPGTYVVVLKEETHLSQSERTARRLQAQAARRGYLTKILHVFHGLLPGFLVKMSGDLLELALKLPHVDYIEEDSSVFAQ

PCSK9 [2] = target: T1, PCSK9; assay: SPR binding studies (BIACORE3000); details: 25° C., phosphate buffer pH 7.4; compounds run at 10 nM, 100 nM and 1 micro mole, concentration of the value not stated
Method: Instrumentation: BIACORE3000 from GE Life Sciences was used and the Interaction analysis was performed at 25° C.
Buffers: phosphate buffer pH 7.4 supplied by Biacore supplemented with 0.01% dimethyl sulfoxide (DMSO) was used as running buffer during the assay.
Immobilization of Ligand: Sensor chip CM5 was used for analysis. The sensor chip consists of a carboxymethyl-modified dextran polymer linked to a gold-covered glass support. The ligand was diluted to 10 micro gram/ml in 10 mM sodium acetate, pH5.0 and immobilized to the sensor chip, using amine coupling. Running buffer without DMSO was used during immobilization. The surface was activated by injecting a solution containing 0.2M N-ethyl-N′-dimethyl aminopropyl-carbodiimide (EDC) and 50 mM N-hydroxy succinimide (NHS). The system was set for Aim for immobilization of about 1000 RU and the surface was blocked by injecting 1 Mehanolamine at pH 8.5. Then the surface was washed with 50 mM NaOH by injecting two 30 second-pulses to remove off non covalently bound ligand and to stabilize the baseline (automated procedure). Activated dextran was used as a reference surface. To ensure highest sensitivity the SPR Detector response was normalized before running the assay. By calibrating the detector at various light intensities under Conditions of total internal reflection (automated procedure). Solvent correction for DMSO was also carried to minimize the error in data.
Assay Design: A binding assay was set up for different compounds at three different concentrations (10 nM, 100 nM and 1 micro mole), and were injected over the reference and Ligand flow cells at a flow rate of 30 micro liter/min. Each cycle consisted of a 1-min waiting period for monitoring of the baseline stability and 3 minute injection of compound with a 5 minute Undisturbed dissociation phase, and the surface was regenerated with 50 mM NaoH solution. Compound responses in the reference flow cell were subtracted with that of ligand and a solvent correction run was carried in between and the binding potential of the compounds was reported as relative response units (RU).
Target sequence in this assay (Q8NBP7 153-692): as the sequence (Q8NBP7 153-692) above

[3] = tested on: LPS induced dyslipidemia model C57 mice; assay: LDL-C lowering activity in LPS induced dyslipidemia model C57 mice; format: in vivo; details: male C57 mice, i.p. or oral, 24 hours after LPS, vs Vehicle group
Method: Male C57 mice of 7-10 week age are grouped based on non-fasting LDL-C levels, on next day these mice were administered with Vehicle or test compounds (i.p. or oral) and 30 min after compound administration lipolysaccharide (LPS) was administered. After LPS administration all animals were kept on fasting for 24 hours, after that animals were bled and LDL-C was measured. The percent change in LDL-C in test compound group Vs Vehicle group was calculated.

[4] = tested on: HF-HC diet fed Syrian golden hamsters; assay: Lipid lowering effect in HF-HC diet fed hamster model; format: in vivo; set-up: concentration or dose not given beside the values; details: oral gavage once daily, day 14
Text: In this experiment, Syrian golden hamsters which were kept on high fat—high cholesterol (HF-HC) fructose diet for 2 weeks were divided into various groups based on LDL-C and Total cholesterol levels. The treatment was given by oral gavages once daily for 14 days. The blood was collected by retro-orbital sinus puncture method under light ether anesthesia on day 0 (pretreatment), and day 14 of the treatment for lipid levels measurements. The percent change in LDL-C in compound group Vs Vehicle group was calculated.

high fat diet C57 mice = assay: LDL-C lowering activity in high fat diet C57 mice; format: in vivo; details: C57 mice on high fat diet, orally once a day, 4-6 week treatment
Method: The in-vivo LDL-c lowering for test compound was tested in C57 mice which were kept on high fat diet for 4 weeks and the blood was collected by retro-orbital sinus puncture method under light ether anesthesia on day 0 (pretreatment), animal are grouped based on LDL-C levels, after that 4-6 week treatment with vehicle or test compound orally once a day was given. On completion of treatment on day 28 day and or on day 42 of the treatment the blood was collected for LDL-C levels measurement. The percent change in LDL-C in test compound group Vs Vehicle group was calculated.

SMILES | inhibition at 10 µM (PCSK9 [1]; Concentration 10 μM) [%] | inhibition at 100 µM (PCSK9 [1]; Concentration 100 μM) [%] | Relative response (RU) (PCSK9 [2]) | % Change in LDL-C [3] [%] | % Change Vs Vehicle Control HDL-C [4] [%] | % Change Vs Vehicle Control LDL-C [4] [%] | % Change Vs Vehicle Control TC [4] [%] | % Change Vs Vehicle Control TG [4] [%] | % Change Vs Vehicle Control HDL-C (high fat diet C57 mice) [%] | % Change Vs Vehicle Control LDL-C (high fat diet C57 mice) [%] | % Change Vs Vehicle Control TC (high fat diet C57 mice) [%] | % Change Vs Vehicle Control TG (high fat diet C57 mice) [%] | % Inhibition PCSK9 (PCSK9 [1]; Concentration 1 μM, 1 µM) [%] | % Inhibition PCSK9 (PCSK9 [1]; Concentration 10 μM, 10 µM) [%] | % Inhibition PCSK9 (PCSK9 [1]; Concentration 100 μM, 100 µM) [%] | inhibition at 1 µM (PCSK9 [1]; Concentration 1 μM) [%]
Cc1oc(-c2ccccc2)nc1CC1COC(C)(C(=O)NO)OC1 (single isomer, unassigned) [Example 4, N-(Hydroxy)-2-methyl-5-((5-methyl-2-phenyloxazol-4-yl)methyl)-1,3-dioxane-2-carboxamide] | 35 | 42 | 5.13 | −29.4 ± 4.1 | −25 | −24 | −27 | −35 | −5 | −24 | −14 | −35 |  |  |  | 
Cc1ccc(-c2nc(CC3COC(C)(C(=O)NCC4CCOCC4)OC3)c(C)o2)cc1 (centres unmarked) [Example 63, 2-methyl-5-c-((5-methyl-2-(p-tolyl)oxazol-4-yl)methyl)-N—((tetrahydro-2H-pyran-4-yl)methyl)-1,3-dioxane-2-carboxamide] |  |  |  | −9.0 ± 10.0 |  |  |  |  |  |  |  |  | 39 | 40 | 51 | 
Cc1oc(-c2ccncc2)nc1CC1COC(C)(C(=O)NCC2CCOCC2)OC1 (centres unmarked) [Example 84, 2-methyl-5-c-((5-methyl-2-(pyridin-4-yl)oxazol-4-yl)methyl)-N—((tetrahydro-2H-pyran-4-yl)methyl)-1,3-dioxane-2-carboxamide] |  |  | 2.23 | −25.8 ± 8.6 |  |  |  |  |  |  |  |  | 25 | 29 | 65 | 
Cc1nc(-c2ccc(C(F)(F)F)cc2)sc1CC1COC(C)(C(=O)NO)OC1 (centres unmarked) [Example 91, N-hydroxy-2-methyl-5-((4-methyl-2-(4-(trifluoromethyl)phenyl)thiazol-5-yl)methyl)-1,3-dioxane-2-carboxamide] | 12 | 32 |  | −37.4 ± 8.8 |  |  |  |  |  |  |  |  |  |  |  | 8
Cc1nc(-c2ccc(C(F)(F)F)cc2)sc1CC1COC(C)(C(=O)N2CCOCC2)OC1 (centres unmarked) [Example 93, (2-methyl-5-((4-methyl-2-(4-(trifluoromethyl)phenyl)thiazol-5-yl)methyl)-1,3-dioxan-2-yl)(morpholino)methanone] | 16 | 49 |  | −46.0 ± 6.2 |  |  |  |  |  |  |  |  |  |  |  | 20
